Laboratory results as given in patent US7524930B2, “Tumor antigen” (Green Peptide Co., Ltd, priority 2003, dated 2009).

Assays:
HLA-A0201 molecule = molecular target: T1, HLA-A0201 molecule (Homo sapiens, UniProt P04439, D140Y/D185E/D98H/E176V/E277Q/G131W/G231S/I119V/I121R/I166T/I218V/L300P/L318F/N151K/N90K/P208A/P217A/Q86G/Q94H/R138H/R169H/T345S); test: Binding activity of peptide to HLA-A0201 molecule on T2 cells (FACScan, MFI); settings: peptide 10 μM, positive and negative controls 898 and 490
T1 construct: endogenous in cells; host or cells: T2 cells (TAP-deficient mutant line)
Protocol: Binding activity of the peptide to the HLA-A0201 molecule was tested using a T2 cell mutant strain (Cancer Res., 54:1071-1076, 1994. ) The T2 cell expresses the HLA-A2 molecule on a cell surface without binding to a peptide, because of deficiency of TAP. Specifically, the synthesized peptide (10 μM) and the T2 cells were incubated at 26° C. for 3 h and, subsequently, incubated in 5% CO2 and 95% air at 37° C. for 3 h.
Binding affinity of the peptides to HLA-A0201 molecule was expressed as a relative mean fluorescence intensity (MFI) of the HLA-A2 molecule.

[1] = tested on: peripheral blood mononuclear cells derived from a cancer patient; test: CTL induction by peptide from autologous PBMC of cancer patient, IFN-γ production on recognition of target cells (Example 5); type: cell-based, human; settings: for IFN-γ production from peripheral blood mononuclear cells in recognition of target cells: PBMC stimulated with 10 μM peptide
Excerpt: Among the peptides that were able to enhance IFN-γ production from the OK-CTLp or OK-CTL clone in Example 4, those from P1 to P19 were examined for their ability to induce CTL from peripheral blood mononuclear cells derived from a cancer patient. The method for inducing CTL by a peptide was according to the well-known method (J. Exp. Med., 187:277-288, 1998; Cancer Res., 59:4056-4063, 1999.) Specifically, autologous peripheral blood mononuclear cells (PBMC) derived from a cancer patient, from whom OK-CTLp was obtained, were incubated together with the peptide (10 μM.) The cells were re-stimulated at day 10 and 14 after the start of culturing, using autologous PBMCs as an antigen presenting cell (APC) which were pulsed with 10 μM of the same peptide for 2 h and exposed to irradiation (30 gray.) At day 21 after the start of culturing, the cells were collected to test for surface phenotype. In addition, the cells were examined for the recognition of various target cells, using IFN-γ production measured by ELISA when they were cultured together with the target cells as an indicator. As a target cells, SW620 cell, CA9-22 cell, and Panc-1 cell, which are the HLA-A2^+ tumor cells, were used.

[2] = tested on: peripheral blood mononuclear cells derived from a cancer patient; test: as above; type: cell-based, human; settings: PBMC stimulated with 10 μM peptide

## LIADETSGL [Peptide P3, Gene 1 (UBE2V) 85-93]
HLA-A0201 molecule
  MFI (relative mean fluorescence intensity of the HLA-A2 molecule; binding affinity to HLA-A0201): 910
[1]; SW620, CA9-22 and Panc-1 HLA-A2+ tumor cells, result in words
  Recognition of tumor cells by PBMC stimulated in vitro with peptide (IFN-γ production): produced IFN-γ in a significant amount
[1]; target CA9-22 (HLA-A0207/24)
  IFN-γ production from peripheral blood mononuclear cells in recognition of target cells: 58 pg/mL
[1]; target Panc-1 (HLA-A0201/11)
  IFN-γ production from peripheral blood mononuclear cells in recognition of target cells: 289 pg/mL
[1]; target SW620 (HLA-A0201/24)
  IFN-γ production from peripheral blood mononuclear cells in recognition of target cells: 188 pg/mL
[2]; target COLO320 (HLA-A24/24)
  IFN-γ production from peripheral blood mononuclear cells in recognition of target cells: 44 pg/mL
[2]; target QG56 (HLA-A26/26)
  IFN-γ production from peripheral blood mononuclear cells in recognition of target cells: 0 pg/mL
[2]; target RERF-LC-MS (HLA-A11/11)
  IFN-γ production from peripheral blood mononuclear cells in recognition of target cells: 0 pg/mL
